In US20070105822A1, “Novel uses of known drugs” (priority 2003, published 2007):

Experiments:
[1] = in vivo; cited from earlier work
[2] = system: human PBMC depleted of γδ T cells; assay: TNFα ELISA on PBMC after magnetic depletion of γδ T cells; type: cell-based; details: 100 μM pamidronate, 10 μM risedronate; FIG. 2A, 2B
Method: (§1) γδ T cells were washed in RPMI and incubated overnight in R10 at 37° C. 96-well nitrocellulose plates (Millipore) were incubated overnight at 4° C. with 15 μg/ml antihuman-IFN-γ primary antibody (clone 1-D1K; Mabtech, Sweden). The plates were then washed twice with RPMI and blocked with R10 for 3 hours at 37° C. R10 was decanted by inversion and assays applied to each well before incubation at 37° C. as detailed below. Assays were terminated by washing once in water, followed by 5 washes in PBS. Secondary antibody (anti-human-IFN-γ-Biotin antibody clone 7-B6-1; Mabtech) was applied at 1 μg/ml and the plate incubated for 100 minutes at room temperature (RT). The plate was washed 6 times with PBS before application of Streptavidin-ALP (1:1000 in PBS; Mabtech) for 40 minutes at RT. […]
10^8 human PBMC were incubated with 10 μg/ml of anti-human pan-γδ antibody for 30 minutes on ice. […] The success of depletion was determined by FACS analysis with the anti-CD3 and pan-γδ antibodies detailed above, and was >95% efficient in all cases shown.
5×10^6 PBMC from a healthy donor+/−magnetic depletion of γδ T cells were suspended in 1 ml of R10+/−antigen in 75×5 mm FACS tubes at 37° C. and 5% CO2 for the times shown. […] The percentage of cytokine positive cells (fluorescence intensity>20) is shown in the upper right corner of each panel.

[3] = system: Vγ9JPVδ2 T cells; assay: IFNγ ELISpot with Vγ9JPVδ2 T cell clone Bob and spinner HeLa antigen presenting cells; type: cell-based, human; details: 1,000 Vγ9JPVδ2 T cells, 25,000 spinner HeLa cells per well, 6 hours; FIG. 1A
Method: (§2) γδ T cells were isolated from human peripheral blood using a magnetic separation kit (TCR γ/δ Microbead Kit and MS columns from Miltenyi Biotech). Once isolated, cells were resuspended in T cell medium (RPMI supplemented with 100 U/ml penicillin, 100 μg/ml streptomycin, 10% FCS, 10% T-STIM (BD Biosciences), 200 U/ml Proleukin (Chiron)) containing 2×10^6 γ-irradiated PMBC/ml from three individuals and 2 μg/ml PHA. Cells were maintained with T cell medium, and restimulated with mixed irradiated PBMC and PHA every three weeks. For cloning, the same mix was used to grow cells by limiting dilution in 96-well U-boftomed plates. Cells that grew were confirmed to be γδ T cells with Vγ9 antibody.
as §1, with “(RT).” for “(RT). The plate was washed 6 times with PBS before application of Streptavidin-ALP (1:1000 in PBS; Mabtech) for 40 minutes at RT.”

[4] = system: circulating γδ T cells; details: cited from earlier work
[5] = system: Vγ9-expressing T cells; assay: Intracellular cytokine staining (ICS) of fresh PBMC exposed to nBPs; type: cell-based, human; details: for IL6 and TNFα production by Vγ9-expressing cells by ICS: 100 μM pamidronate, FIG. 2D
Method: 10^6 fresh PBMC were incubated in FACS tubes with brefeldin A (10 μg/ml R10) for 5 hours after pulsing with relevant antigens for 1 hour. The cells were then washed, permeabilised in 20% FACSLyse (BD Biosciences), washed twice in ice cold PBS/0.1% BSA and stained on ice with pre-titred APC-conjugated anti-IFNγ, anti-TNFα and anti-IL-2 and PE-conjugated anti-Vγ9 mAbs for 20 minutes. For single cytokine analysis (FIG. 2D), cells were stained with PE-conjugated anti-IL6, APC-conjugated anti-TNFα and FITC-conjugated anti-Vγ9 antibodies. In each case, cells were then washed, resuspended in PBS & analysed immediately.
5×10^6 PBMC from a healthy donor+/−magnetic depletion of γδ T cells were suspended in 1 ml of R10+/−antigen in 75×5 mm FACS tubes at 37° C. and 5% CO2 for the times shown. 60 μl of cell supernatant was removed and applied to TNFα ELISA plates in duplicate and developed according to the manufacturers instructions. Standard deviation from the mean of the two replicate ELISAs is shown although, in most cases, this error is smaller than the plot symbol. In (C), exposure to nBPs activates PBMC that express a Vγ9 receptor and not other T cells or B cells. 10^6 fresh human PBMC were exposed to R10 (top panel) or R10+10 μM risedronate (bottom panel) for 6 hours in an intracellular cytokine staining (ICS) assay. Plots show all the cells in the lymphocyte gate stained for PE-Vγ9 and APC-cytokines (TNFα, IL2, and IFNγ). Exposure to risedronate induces cytokine production only in lymphocytes that express a Vγ9 TCR. The percentage of total lymphocytes in the Vγ9^+ cytokine^+ gate shown is indicated in the upper right of each panel. Almost 10% of the lymphocytes expressing a Vγ9 receptor are activated by exposure to nBPs. […] Plots are gated to show only Vγ9-expressing lymphocytes. […] The percentage of cytokine positive cells (fluorescence intensity>20) is shown in the upper right corner of each panel.

[6] = system: human PBMC; assay: TNFα ELISA on direct ex vivo human PBMC exposed to nBPs; type: cell-based; details: 10 μM risedronate or 100 μM pamidronate, 12 hours, FIG. 1B
Method: γδ T cells were washed in RPMI and incubated overnight in R10 at 37° C. 96-well nitrocellulose plates (Millipore) were incubated overnight at 4° C. with 15 μg/ml antihuman-IFN-γ primary antibody (clone 1-D1K; Mabtech, Sweden). The plates were then washed twice with RPMI and blocked with R10 for 3 hours at 37° C. R10 was decanted by inversion and assays applied to each well before incubation at 37° C. as detailed below. Assays were terminated by washing once in water, followed by 5 washes in PBS. Secondary antibody (anti-human-IFN-γ-Biotin antibody clone 7-B6-1; Mabtech) was applied at 1 μg/ml and the plate incubated for 100 minutes at room temperature (RT). The plate was washed 6 times with PBS before application of Streptavidin-ALP (1:1000 in PBS; Mabtech) for 40 minutes at RT. […] A TNFα ELISA kit (Peprotech) was used in accordance with the manufacturers instructions.
In FIG. 1 (B), nBPs are shown to stimulate TNFA production from direct ex vivo human PBMC. […] 60 μl aliquots were removed at the specified time and added to TNFα ELISA assays.

[7] = system: γδ T cell; details: cited from earlier work
[8] = system: Vγ9JPVδ2 T cell clones; assay: TNFα ELISA on Vγ9JPVδ2 T cell clones activated by risedronate; type: cell-based, human; details: 10 μM risedronate, 10^6 T cells, clones P, M and Bob; FIG. 1C
Method: as §2
as §1, with “(RT).” for “(RT). The plate was washed 6 times with PBS before application of Streptavidin-ALP (1:1000 in PBS; Mabtech) for 40 minutes at RT.”

| SMILES | acute phase response [1] | TNFα production by PBMC after magnetic depletion of γδ T cells [2] | activation of clonal Vγ9JPVδ2 T cells by IFNγ ELISpot [3] | IL6 and TNFα production by Vγ9-expressing cells by ICS ([5]; 10 μM risedronate) | TNFα production from direct ex vivo human PBMC [6] | other results |
| --- | --- | --- | --- | --- | --- | --- |
| CC(O)(P(=O)(O)O)P(=O)(O)O [etidronate, disodium etidronate] | has not been observed |  |  |  |  |  |
| O=P(O)(O)C(Sc1ccc(Cl)cc1)P(=O)(O)O [tiludronate] | has not been observed |  |  |  |  |  |
| NCCC(O)(P(=O)(O)O)P(=O)(O)O [pamidronate, disodium pamidronate] |  | removed the ability of PBMC to produce TNFα | activate | make both IL6 and TNFα | large amounts of TNFα | number of circulating γδ T cells in patients with acute phase reaction ([4]; 1 and 3 weeks post-infusion): substantial increase; γδ T cells as % of CD3+ cells post-infusion ([4]; one patient, expanded from 4.6%): 70% |
| O=P(O)(O)C(Cl)(Cl)P(=O)(O)O [clodronate, disodium clodronate] | has not been observed |  |  |  |  |  |
| O=P(O)(O)C(O)(Cc1cccnc1)P(=O)(O)O [risedronate, risedronate sodium] |  | removed the ability of PBMC to produce TNFα | activate | make both IL6 and TNFα | large amounts of TNFα | concentration stimulating γδ T cell expansion from human PBMC [7]: ≥ 10 nM; activation (TNFα production) of Vγ9JPVδ2 T cell clones [8]: extremely rapid; lymphocytes expressing a Vγ9 receptor activated (cytokine+ by ICS) ([5]; 10 μM risedronate (100 μM pamidronate, data not shown), 6 hours, TNFα, IL2, IFNγ staining, FIG. 2C): ~10%; expression of the Vγ9 TCR ([5]; 10 μM risedronate, 6 hours, ICS): lowers the expression of the Vγ9 TCR |
